Reference: paper PMC2504292 (Nucleic Acids Research, 2008)

T1: PARN RRM (cap-binding domain of mouse PARN, residues 430-516) (Mus musculus, UniProt Q8VDG3)
T1 sequence (Q8VDG3 430-516): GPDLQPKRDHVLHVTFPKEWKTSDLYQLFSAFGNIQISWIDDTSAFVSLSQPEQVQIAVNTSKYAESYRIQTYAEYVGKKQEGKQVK

T2: PARN RRM (cap-binding domain), NMR/ITC construct (mouse, UniProt Q8VDG3 430-516)
T2 sequence: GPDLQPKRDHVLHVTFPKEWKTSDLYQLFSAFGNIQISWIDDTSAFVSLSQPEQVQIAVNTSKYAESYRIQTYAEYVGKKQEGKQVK


Columns and labels:
[1] = biological target: T1, PARN RRM (cap-binding domain of mouse PARN, residues 430-516); assay: isothermal titration calorimetry
[2] = biological target: T2, PARN RRM (cap-binding domain), NMR/ITC …; assay: NMR HSQC titration

Kd [1] [µM] | Molecule | binding result [2]
~45 | C[n+]1cn([C@@H]2O[C@H](COP(=O)(O)OP(=O)(O)OP(=O)(O)OC[C@H]3O[C@@H](n4cnc5c(=O)[nH]c(N)nc54)[C@H](O)[C@@H]3O)[C@@H](O)[C@H]2O)c2nc(N)[nH]c(=O)c21 [m7GpppG] | 
 | AAAAAAAAAA (ssRNA) [A10 10-mer poly(A)] | no binding
